Converted amounts (≈) assume the structure as drawn.
Legend:
Type in all cases: functional
Klebsiella pneumoniae = assay: Antibacterial activity against Klebsiella pneumoniae after 3 to 4 days by serial plate dilution method
Staphylococcus aureus = assay: Antibacterial activity against Staphylococcus aureus ATCC 25923 after 3 to 4 days by serial plate dilution method
[1] = tested on: Trichophyton mentagrophytes; assay: Antifungal activity against Trichophyton mentagrophytes after 3 to 4 days by serial plate dilution method
Escherichia coli = assay: Antibacterial activity against Escherichia coli ATCC 25922 after 3 to 4 days by serial plate dilution method
Talaromyces marneffei = assay: Antifungal activity against Penicillium marneffei after 3 to 4 days by serial plate dilution method
Rattus norvegicus = assay: Antiinflammatory activity in Wister albino rat assessed as inhibition of carrageenan-induced paw edema at 10 mg/kg, po administered 30 mins before carrageenan treatment measured after 3 hrs by plethysmometric analysis
Aspergillus fumigatus = assay: Antifungal activity against Aspergillus fumigatus NCIM 902 after 3 to 4 days by serial plate dilution method
Aspergillus flavus = assay: Antifungal activity against Aspergillus flavus NCIM 524 after 3 to 4 days by serial plate dilution method
Pseudomonas aeruginosa = assay: Antibacterial activity against Pseudomonas aeruginosa ATCC 27853 after 3 to 4 days by serial plate dilution method
Mus musculus [2] = assay: Analgesic activity in Swiss albino mouse assessed as inhibition of heat-induced paw licking or jumping behavior at 10 mg/kg, po administered after 15 sec of heat challenge measured after 60 mins post dose by Eddy's hot plate method; details: 1 h
Mus musculus [3] = assay: Analgesic activity in Swiss albino mouse assessed as inhibition of heat-induced paw licking or jumping behavior at 10 mg/kg, po administered after 15 sec of heat challenge measured after 30 mins post dose by Eddy's hot plate method; details: 0.5 h
Mus musculus [4] = assay: Analgesic activity in Swiss albino mouse assessed as inhibition of heat-induced paw licking or jumping behavior at 10 mg/kg, po administered after 15 sec of heat challenge measured after 90 mins post dose by Eddy's hot plate method; details: 1.5 h

SMILES	MIC (Klebsiella pneumoniae) [µg/mL]	MIC (Staphylococcus aureus) [µg/mL]	MIC [1] [µg/mL]	MIC (Escherichia coli) [µg/mL]	MIC (Talaromyces marneffei) [µg/mL]	MIC (Aspergillus fumigatus) [µg/mL]	MIC (Aspergillus flavus) [µg/mL]	MIC (Pseudomonas aeruginosa) [µg/mL]	inhibition in vivo at 10 mg/kg (Rattus norvegicus) [%]	inhibition in vivo at 10 mg/kg (Mus musculus [2]) [%]	inhibition in vivo at 10 mg/kg (Mus musculus [3]) [%]	inhibition in vivo at 10 mg/kg (Mus musculus [4]) [%]
CC(C)Cc1ccc(C(C)c2nn(CN3CCN(c4cccc(Cl)c4)CC3)c(=S)o2)cc1 (stereo not given)	25 (≈ 53.1 µM)	25 (≈ 53.1 µM)	6.25 (≈ 13.3 µM)	25 (≈ 53.1 µM)	6.25 (≈ 13.3 µM)	6.25 (≈ 13.3 µM)	6.25 (≈ 13.3 µM)	25 (≈ 53.1 µM)	64.3			
CCOc1ccccc1N1CCN(Cn2nc(C(C)c3ccc(CC(C)C)cc3)oc2=S)CC1 (stereo not given)	25 (≈ 52 µM)	25 (≈ 52 µM)	12.5 (≈ 26 µM)	25 (≈ 52 µM)	12.5 (≈ 26 µM)	12.5 (≈ 26 µM)	12.5 (≈ 26 µM)	25 (≈ 52 µM)	44.6			
COc1ccc(N2CCN(Cn3nc(Cc4ccc(SC)cc4)oc3=S)CC2)cc1	12.5 (≈ 28.2 µM)	12.5 (≈ 28.2 µM)	12.5 (≈ 28.2 µM)	12.5 (≈ 28.2 µM)	12.5 (≈ 28.2 µM)	12.5 (≈ 28.2 µM)	12.5 (≈ 28.2 µM)	12.5 (≈ 28.2 µM)	33.7			
CSc1ccc(Cc2nn(CN3CCN(c4cccc(Cl)c4)CC3)c(=S)o2)cc1	12.5 (≈ 28 µM)	12.5 (≈ 28 µM)	12.5 (≈ 28 µM)	12.5 (≈ 28 µM)	12.5 (≈ 28 µM)	12.5 (≈ 28 µM)	12.5 (≈ 28 µM)	12.5 (≈ 28 µM)	74.7	32	25.6	41.2
CCOc1ccccc1N1CCN(Cn2nc(Cc3ccc(SC)cc3)oc2=S)CC1	12.5 (≈ 27.4 µM)	12.5 (≈ 27.4 µM)	12.5 (≈ 27.4 µM)	12.5 (≈ 27.4 µM)	12.5 (≈ 27.4 µM)	12.5 (≈ 27.4 µM)	12.5 (≈ 27.4 µM)	12.5 (≈ 27.4 µM)	42.5			
CC(C)Cc1ccc(C(C)c2nn(CN3CCNCC3)c(=S)o2)cc1 (stereo not given)	12.5 (≈ 34.7 µM)	12.5 (≈ 34.7 µM)	12.5 (≈ 34.7 µM)	12.5 (≈ 34.7 µM)	12.5 (≈ 34.7 µM)	12.5 (≈ 34.7 µM)	12.5 (≈ 34.7 µM)	12.5 (≈ 34.7 µM)				
CC(C)Cc1ccc(C(C)c2nn(CN3CCN(C)CC3)c(=S)o2)cc1 (stereo not given)	12.5 (≈ 33.4 µM)	12.5 (≈ 33.4 µM)	25 (≈ 66.7 µM)	12.5 (≈ 33.4 µM)	25 (≈ 66.7 µM)	25 (≈ 66.7 µM)	25 (≈ 66.7 µM)	12.5 (≈ 33.4 µM)				

Further molecules by falling MIC (Klebsiella pneumoniae), results first:

MIC (Klebsiella pneumoniae) [µg/mL]	MIC (Staphylococcus aureus) [µg/mL]	MIC [1] [µg/mL]	MIC (Escherichia coli) [µg/mL]	MIC (Talaromyces marneffei) [µg/mL]	MIC (Aspergillus fumigatus) [µg/mL]	MIC (Aspergillus flavus) [µg/mL]	MIC (Pseudomonas aeruginosa) [µg/mL]	SMILES	inhibition in vivo at 10 mg/kg (Rattus norvegicus) [%]	inhibition in vivo at 10 mg/kg (Mus musculus [2]) [%]	inhibition in vivo at 10 mg/kg (Mus musculus [3]) [%]	inhibition in vivo at 10 mg/kg (Mus musculus [4]) [%]
12.5 (≈ 26 µM)	12.5 (≈ 26 µM)	25 (≈ 51.9 µM)	12.5 (≈ 26 µM)	25 (≈ 51.9 µM)	25 (≈ 51.9 µM)	25 (≈ 51.9 µM)	12.5 (≈ 26 µM)	CC(C)Cc1ccc(C(C)c2nn(CN3CCN(c4ccc([N+](=O)[O-])cc4)CC3)c(=S)o2)cc1 (stereo not given)	75.1	36.2	30.6	44.8
6.25 (≈ 13.7 µM)	6.25 (≈ 13.7 µM)	6.25 (≈ 13.7 µM)	6.25 (≈ 13.7 µM)	6.25 (≈ 13.7 µM)	6.25 (≈ 13.7 µM)	6.25 (≈ 13.7 µM)	6.25 (≈ 13.7 µM)	CC(C)Cc1ccc(C(C)c2nn(CN3CCN(c4ccc(F)cc4)CC3)c(=S)o2)cc1 (stereo not given)	75.4	45	32.6	57
6.25 (≈ 14 µM)	6.25 (≈ 14 µM)	6.25 (≈ 14 µM)	6.25 (≈ 14 µM)	6.25 (≈ 14 µM)	6.25 (≈ 14 µM)	6.25 (≈ 14 µM)	6.25 (≈ 14 µM)	CSc1ccc(Cc2nn(CN3CCN(c4ccc(Cl)cc4)CC3)c(=S)o2)cc1	71.1			
6.25 (≈ 13.7 µM)	6.25 (≈ 13.7 µM)	25 (≈ 54.6 µM)	6.25 (≈ 13.7 µM)	25 (≈ 54.6 µM)	25 (≈ 54.6 µM)	25 (≈ 54.6 µM)	6.25 (≈ 13.7 µM)	CSc1ccc(Cc2nn(CN3CCN(c4ccc([N+](=O)[O-])cc4)CC3)c(=S)o2)cc1	56.6			
6.25 (≈ 14.5 µM)	6.25 (≈ 14.5 µM)	6.25 (≈ 14.5 µM)	6.25 (≈ 14.5 µM)	6.25 (≈ 14.5 µM)	6.25 (≈ 14.5 µM)	6.25 (≈ 14.5 µM)	6.25 (≈ 14.5 µM)	CSc1ccc(Cc2nn(CN3CCN(c4ccc(F)cc4)CC3)c(=S)o2)cc1	68.7			
